Source: PubChem BioAssay (NCI)
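48-hour exposure; five concentrations; linearly interpolated endpoints. GI50: concentration for 50% inhibition of growth. TGI denotes the concentration required for complete inhibition of growth.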

Assays:
Assay in all cases: NCI anticancer screen, dose series, 48 h
HCC-2998 colon = system: HCC-2998 colon
K-562 leukemia = system: K-562 leukemia
LOX IMVI melanoma = system: LOX IMVI melanoma
NCI-H23 lung = system: NCI-H23 lung
OVCAR-3 ovarian = system: OVCAR-3 ovarian
OVCAR-4 ovarian = system: OVCAR-4 ovarian
SNB-75 CNS = system: SNB-75 CNS
T-47D breast = system: T-47D breast
TK-10 renal = system: TK-10 renal
U251 CNS = system: U251 CNS

## CCCCN(CCCC)P(=O)(Oc1ccccc1)Oc1ccccc1
HCC-2998 colon
  GI50: 10 µM
  TGI: 22.2 µM
K-562 leukemia
  GI50: 7.01 µM
  TGI: > 100 µM
LOX IMVI melanoma
  GI50: 12.9 µM
  TGI: 26.5 µM
NCI-H23 lung
  GI50: 4.56 µM
  TGI: 17.7 µM
OVCAR-3 ovarian
  GI50: 6.44 µM
  TGI: 18.7 µM
OVCAR-4 ovarian
  GI50: 7.35 µM
  TGI: 20.5 µM
SNB-75 CNS
  GI50: 11.3 µM
  TGI: 27.3 µM
T-47D breast
  GI50: 7.46 µM
  TGI: 33.1 µM
TK-10 renal
  GI50: 15.8 µM
  TGI: 33.1 µM
U251 CNS
  GI50: 5.59 µM
  TGI: 19.1 µM

## CC(C)[C@@]12C[C@@H](OC(=O)C3CO3)[C@@](C)(O1)[C@@H]1CC[C@@H](C)[C@H]1[C@@H]2OC(=O)/C=C/c1ccccc1 (some centres undefined)
HCC-2998 colon
  GI50: 18.7 µM
  TGI: 35.8 µM
K-562 leukemia
  GI50: 33.2 µM
  TGI: > 100 µM
LOX IMVI melanoma
  GI50: 17 µM
  TGI: 36.7 µM
NCI-H23 lung
  GI50: 17.8 µM
  TGI: 53.8 µM
OVCAR-3 ovarian
  GI50: 15.8 µM
  TGI: 30 µM
OVCAR-4 ovarian
  GI50: 13.2 µM
  TGI: 26.6 µM
SNB-75 CNS
  GI50: 10.8 µM
  TGI: 30.9 µM
T-47D breast
  GI50: 18.8 µM
  TGI: > 100 µM
TK-10 renal
  GI50: 29.6 µM
  TGI: 65.8 µM
U251 CNS
  GI50: 18.7 µM
  TGI: 44.3 µM

## CCOC(=O)c1c(NN2CCN(CC(F)(F)F)CC2)oc(/C=C2\C=Nc3ncccc32)c1O
HCC-2998 colon
  GI50: 2.7 µM
  TGI: 12.6 µM
K-562 leukemia
  GI50: 2.14 µM
  TGI: > 100 µM
LOX IMVI melanoma
  GI50: 2.28 µM
  TGI: 11.8 µM
NCI-H23 lung
  GI50: 7 µM
  TGI: 21.7 µM
OVCAR-3 ovarian
  GI50: 4.06 µM
  TGI: 19.4 µM
OVCAR-4 ovarian
  GI50: 6.17 µM
  TGI: 26.4 µM
SNB-75 CNS
  GI50: 0.325 µM
  TGI: 11.6 µM
T-47D breast
  GI50: 5.08 µM
  TGI: 34.8 µM
TK-10 renal
  GI50: 3.37 µM
  TGI: 24 µM
U251 CNS
  GI50: 4.01 µM
  TGI: 28 µM

## COc1ccc(C2c3ccc4ccccc4c3Oc3ncn(CCCn4ccnc4)c(=N)c32)cc1OC (centres undefined)
HCC-2998 colon
  GI50: 3.45 µM
  TGI: 11.2 µM
K-562 leukemia
  GI50: 2.07 µM
  TGI: 4.54 µM
LOX IMVI melanoma
  GI50: 1.88 µM
  TGI: 3.7 µM
NCI-H23 lung
  GI50: 6.49 µM
  TGI: 22.4 µM
OVCAR-3 ovarian
  GI50: 3.44 µM
  TGI: 11 µM
OVCAR-4 ovarian
  GI50: 9.65 µM
  TGI: 26.4 µM
SNB-75 CNS
  GI50: 2.12 µM
  TGI: 8.13 µM
T-47D breast
  GI50: 2.39 µM
  TGI: 6.25 µM
TK-10 renal
  GI50: 4 µM
  TGI: 14.4 µM
U251 CNS
  GI50: 2.36 µM
  TGI: 7.69 µM

## CCn1nc(C2CCN(C(=O)CCO)CC2)nc1-c1cnc(N)c(-c2nnc(C(C)(C)C)o2)n1
HCC-2998 colon
  GI50: 10.7 µM
  TGI: > 100 µM
K-562 leukemia
  GI50: 27.8 µM
  TGI: > 100 µM
LOX IMVI melanoma
  GI50: 3.2 µM
  TGI: 19.8 µM
NCI-H23 lung
  GI50: 26.1 µM
  TGI: > 100 µM
OVCAR-3 ovarian
  GI50: 7.81 µM
  TGI: 38.4 µM
OVCAR-4 ovarian
  GI50: 53.7 µM
  TGI: > 100 µM
SNB-75 CNS
  GI50: 0.155 µM
  TGI: > 100 µM
T-47D breast
  GI50: 0.0731 µM
  TGI: 0.57 µM
TK-10 renal
  GI50: 1.95 µM
  TGI: > 100 µM
U251 CNS
  GI50: > 65.5 µM
  TGI: > 100 µM

## N#Cc1c(N)nc2c(c1-c1ccc(Cl)cc1)COc1ccc(F)cc1-2
HCC-2998 colon
  GI50: 23.3 µM
  TGI: 68.8 µM
K-562 leukemia
  GI50: 15.5 µM
  TGI: 34.1 µM
LOX IMVI melanoma
  GI50: 18.4 µM
  TGI: 40.2 µM
NCI-H23 lung
  GI50: 28.4 µM
  TGI: > 100 µM
OVCAR-3 ovarian
  GI50: 23.2 µM
  TGI: 50.2 µM
OVCAR-4 ovarian
  GI50: 34.7 µM
  TGI: > 100 µM
SNB-75 CNS
  GI50: > 100 µM
  TGI: > 100 µM
T-47D breast
  GI50: 43.7 µM
  TGI: > 100 µM
TK-10 renal
  GI50: 34.7 µM
  TGI: > 100 µM
U251 CNS
  GI50: 31.7 µM
  TGI: > 100 µM

## CCOC(=O)Cc1csc(NC(=O)C(OC(=O)c2ccc(Cl)cc2)c2ccccc2)n1 (centres undefined)
HCC-2998 colon
  GI50: 50.9 µM
  TGI: > 100 µM
K-562 leukemia
  GI50: 27.1 µM
  TGI: > 100 µM
LOX IMVI melanoma
  GI50: 33.6 µM
  TGI: > 100 µM
OVCAR-3 ovarian
  GI50: 17.8 µM
  TGI: 41.9 µM
OVCAR-4 ovarian
  GI50: 40.3 µM
  TGI: > 100 µM
SNB-75 CNS
  GI50: 26.1 µM
  TGI: 95.1 µM
T-47D breast
  GI50: 63.1 µM
  TGI: > 100 µM
TK-10 renal
  GI50: > 100 µM
  TGI: > 100 µM
U251 CNS
  GI50: 45.3 µM
  TGI: > 100 µM

## O=C1OC2(c3ccc(O)cc3Oc3cc(O)ccc32)c2cccc3cccc1c23
HCC-2998 colon
  GI50: 48.4 µM
  TGI: > 100 µM
K-562 leukemia
  GI50: 33.2 µM
  TGI: > 100 µM
LOX IMVI melanoma
  GI50: 18.1 µM
  TGI: 36 µM
NCI-H23 lung
  GI50: 20 µM
  TGI: 49.9 µM
OVCAR-4 ovarian
  GI50: 16.1 µM
  TGI: 34.4 µM
SNB-75 CNS
  GI50: 12.3 µM
  TGI: 43.4 µM
T-47D breast
  GI50: 28.6 µM
  TGI: 99.6 µM
TK-10 renal
  GI50: 27.4 µM
  TGI: 58.1 µM
U251 CNS
  GI50: 18.1 µM
  TGI: 39.3 µM

## COc1cccc(S(=O)(=O)NC2=NCCN2C(=S)SN2CCn3c2nsc3=S)c1
HCC-2998 colon
  GI50: 41.5 µM
  TGI: > 100 µM
K-562 leukemia
  GI50: 31.4 µM
  TGI: 92.3 µM
LOX IMVI melanoma
  GI50: 13.2 µM
  TGI: 26.5 µM
OVCAR-3 ovarian
  GI50: 25.6 µM
  TGI: 56.5 µM
OVCAR-4 ovarian
  GI50: 34.2 µM
  TGI: > 100 µM
SNB-75 CNS
  GI50: 30 µM
  TGI: 89.6 µM
T-47D breast
  GI50: 23.3 µM
  TGI: 51 µM
TK-10 renal
  GI50: 34.4 µM
  TGI: 81.5 µM
U251 CNS
  GI50: 22 µM
  TGI: 61.8 µM
